In patent publication US6103707A, “9-(2-deoxy-2-fluoro-4-thio-beta-D-arabinofuranosyl)purine derivatives” (Yamasa Corporation, priority 1996, dated 2000) one finds EC50 data, which are given here for six compounds.

For assay [1], the system named is HSV-2. In words: Anti-HSV-2 activity (plaque-formation inhibition in human embryonic lung fibroblasts). It counts as cell-based, herpes simplex virus 2 (HSV-2), MS strain. The settings on record: Human alphaherpesvirus 2, Fibroblast, read-out: Antiviral Activity (ED50) HSV-2. On the procedure: (§1) (1) Anti-HSV-1 Activity and Anti-HSV-2 Activity
(§2) 1. Fibroblasts derived from human embryonic lung tissue are subcultured in an Eagle's MEM supplemented with 10% of pseudo fetal calf serum (Mitsubishi Chemical Corp.), by passing at 1: (2-4) split every 4 or 5 days.
(§3) 2. A cell suspension obtained from the parent cells by passing at 1:2 split is seeded on a 12-well multiplate at a rate of 2 ml/well, and incubated in a CO2 -incubator at 37° C. for 4 days.
(§4) 3. The culture medium is discarded; a Hanks' MEM (250 microlitters) containing 50 to 150 PFU of the VR-3 strain of HSV-1 or the MS strain of HSV-2 is inoculated, thereby allowing the cells to adsorb the virus at 37° C. for 30 minutes; and then the virus liquid is discarded.
(§5) 4. A serum (2.5%)-added Eagle's MEM containing a test agent and 0.8% of methyl cellulose is added; and the resultant is incubated in a CO2 -incubator at 37° C. for 2 to 3 days. In general, the test agent is diluted serially by 1/2 log 10.
(§6) 5. The culture medium is discarded, and the resultant is dyed with a 0.5% solution of crystal violet; the number of plaques in each well is counted under a stereoscopic light microscope; and the rate of plaque-formation inhibition is obtained from the equation below.
(§7) 6. The rates of plaque-formation inhibition are plotted against the concentrations (in logarithm) of the test agent, and, from this dose--plaque-formation inhibition curve, 50% inhibitory concentration (ED50) of the test agent is obtained. [formula] (2) Anti-Varicella Zoster Virus (VZV) Activity

For assay [2], the system named is HCMV. In words: Anti-Human Cytomegalovirus (HCMV) activity (plaque-formation inhibition in human embryonic lung fibroblasts). It counts as cell-based. The settings on record: Human betaherpesvirus 5, AD169, Fibroblast, HCMV AD-169 strain, 4 days plus further 4 to 5 days, 50% plaque-formation inhibition, read-out: Antiviral Activity (ED50) HCMV. As for the experimental part:
(3) Anti-Human Cytomegalovirus (HCMV) Activity
as §2
2. A cell suspension obtained from the parent cells by passing at 1:2 split is seeded on a 24-well multiplate at a rate of 0.8 ml/well, and incubated in a CO2 -incubator at 37° C. for 4 days.
3. The culture medium is discarded; and 400 microlitters of a serum (5%)-added Eagle's MEM containing 50 to 100 PFU of the AD-169 strain of HCMV is inoculated, thereby allowing the cells to adsorb the virus at 37° C. for 1 hour.
4. The same amount of an MEM containing a test agent is added without discarding the virus liquid, and the resultant is incubated in a CO2 -incubator at 37° C. for 4 days. In general, the test agent is diluted serially by 1/2 log 10.
5. The culture medium is replaced with a serum (2.5%)-added Eagle's MEM containing the test agent with the same concentration and 0.8% of methyl cellulose, and incubation is continued for a further 4 to 5 days.
6. The culture medium is discarded, and the resultant is dyed with May-Gruenwald's and Giemsa (×10) solutions; the number of plaques in each well is counted under a stereoscopic light microscope; and the rate of plaque-formation inhibition is obtained from the same equation as is used in the above (1).
7. The rates of plaque-formation inhibition are plotted against the concentrations (in logarithm) of the test agent, and, from this dose--plaque-formation inhibition curve, 50% inhibitory concentration (ED50) of the test agent is obtained.

Assay [3] has as its system VZV. In words: microbe, parasite or virus in culture. It counts as cell-based, varicella-zoster virus (VZV), Oka strain. Conditions: Human alphaherpesvirus 3, Fibroblast, read-out: Antiviral Activity (ED50) VZV.
Source text: as §7, §2, §3
3. The culture medium is discarded; and 750 microlitters of a serum (5%)-added Eagle's MEM containing 50 to 100 PFU of the Oka strain of VZV is inoculated, thereby allowing the cells to adsorb the virus at 37° C. for 1 hour.
4. The same amount of an MEM containing a test agent is added without discarding the virus liquid, and the resultant is incubated in a CO2 -incubator at 37° C. In general, the test agent is diluted serially by 1/2 log 10.
5. After 4-5 day incubation, the culture medium is discarded, and the resultant is dyed with a 0.5% solution of crystal violet; the number of plaques in each well is counted under a stereoscopic light microscope; and the rate of plaque-formation inhibition is obtained from the same equation as is used in the above (1).
6. The rates of plaque-formation inhibition are plotted against the concentrations (in logarithm) of the test agent, and, from this dose--plaque-formation inhibition curve, 50% inhibitory concentration (ED50) of the test agent is obtained.

The test system of assay [4] is HSV-1. In words: Anti-HSV-1 activity (plaque-formation inhibition in human embryonic lung fibroblasts). It counts as cell-based, herpes simplex virus 1 (HSV-1), VR-3 strain. The settings on record: Human alphaherpesvirus 1, Fibroblast, read-out: Antiviral Activity (ED50) HSV-1. As for the experimental part: as §1, §2, §3, §4, §5, §6, §7
Where [5] appears, read: HSV-2 MS strain, human embryonic lung fibroblasts, 2 to 3 days, 50% plaque-formation inhibition.
Where [6] appears, read: HSV-1 VR-3 strain, human embryonic lung fibroblasts, 2 to 3 days, 50% plaque-formation inhibition.

≈ marks a conversion by molar mass, not a printed value. Read-outs that look alike come from different tables or passages of the source.

With `Nc1ncnc2c1ncn2[C@@H]1O[C@H](CO)[C@@H](O)[C@@H]1O` [Control Example 1, araA, reference compound], the EC50 in assay [1] turned out to be 6.6 µg/mL (≈ 24.7 µM); in assay [2] it was 6.5 µg/mL; in assay [3], 1.17 µg/mL (≈ 4.38 µM); in assay [4], 17.1 µg/mL (≈ 64 µM).

On to `Nc1nc2c(ncn2COCCO)c(=O)[nH]1` [Control Example 2, acyclovir, reference compound], for which the values for the EC50 in assay [1] (setting [5]), in assay [2] and in assay [4] (setting [6]) were 0.23 µg/mL (≈ 1.02 µM), 6.9 µg/mL and 0.14 µg/mL (≈ 0.622 µM), respectively.

As for `Nc1nc(O)c2ncn(COC(CO)CO)c2n1` [Control Example 3, ganciclovir, reference compound], the EC50 in assay [1] (setting [5]) stood at 0.039 µg/mL (≈ 0.153 µM); in assay [2], 0.21 µg/mL; in assay [3], 3.1 µg/mL (≈ 12.1 µM); in assay [4] (setting [6]), 0.016 µg/mL (≈ 0.0627 µM).

As for `Nc1ncnc2c1ncn2[C@@H]1S[C@H](CO)[C@@H](O)[C@@H]1F` [Synthesis Example 1, 9-(2-deoxy-2-fluoro-4-thio-beta-D-arabinofuranosyl)adenine], the EC50 stood at 3.07 µg/mL (≈ 10.8 µM) in assay [1] (setting [5]), 1.41 µg/mL in assay [2], 3.04 µg/mL (≈ 10.7 µM) in assay [3] and 1.61 µg/mL (≈ 5.64 µM) in assay [4] (setting [6]).

`Nc1nc(N)c2ncn([C@@H]3S[C@H](CO)[C@@H](O)[C@@H]3F)c2n1` [Synthesis Example 2, 9-(2-deoxy-2-fluoro-4-thio-beta-D-arabinofuranosyl)-2,6-diaminopurine]: the EC50 stood at 0.05 µg/mL (≈ 0.166 µM) in assay [1] (setting [5]), 0.066 µg/mL in assay [2], 0.101 µg/mL (≈ 0.336 µM) in assay [3] and 0.0057 µg/mL (≈ 0.019 µM) in assay [4] (setting [6]).

On to `Nc1nc2c(ncn2[C@@H]2S[C@H](CO)[C@@H](O)[C@@H]2F)c(=O)[nH]1` [Synthesis Example 3, 9-(2-deoxy-2-fluoro-4-thio-beta-D-arabinofuranosyl)guanine], for which the EC50 in assay [1] (setting [5]) is 0.063 µg/mL (≈ 0.209 µM); in assay [2] it was 0.078 µg/mL; in assay [3], 0.095 µg/mL (≈ 0.315 µM); in assay [4] (setting [6]), 0.0091 µg/mL (≈ 0.0302 µM).
